# Laboratory results from patent US7235536B2, “Cellulose sulfate and other sulfated polysaccharides to prevent and treat papilloma virus infection and other infections” (Rush Presbyterian-St. Luke's Medical Center, priority 2000, dated 2007).
# “And” between values parts separate entries of the source, which are not always exact repeats. Equal values may be shown once. Read-outs that look alike come from different tables or passages of the source. Marks after values point to notes of the source that are not given here.
# How the values were obtained:
# [1] = tested on: Bovine Papillomavirus type I; experiment: BPV cell focus formation assay (Tables A, B); format: cell-based, bovine papilloma virus
# Procedure: Cellulose sulfate was tested for its ability to inhibit BPV infection by cell focus formation assay (see Hermonat et al. (1992) for a description of this assay). Cellulose sulfate from Dextran Products Limited (Lot 80971 in the form of sodium cellulose sulfate, known as Ushercell J.) was mixed with BPV type I (obtained from bovine fibropapillomas) prior to adding the virus to mouse fibroblast line […] cells or mixed with these host cells first prior to adding the virus. In one molecular weight study, the Mr range of cellulose sulfate was about 750 to 20.3 million, with an average Mr of about 1.01 million. […] In another study, the average molecular weight was determined to be about 1.9 million with a peak Mr of about 2.3 million. Unless otherwise specified, the Mr is in daltons. The assay was repeated using different concentrations of cellulose sulfate and the results are shown below.
# HPV-40 = experiment: RT-PCR ELISA for transient infection of human A431 cells, HPV-40; format: cell-based, human papilloma virus; details: with virus (HPV-40)
# Procedure: Cellulose sulfate and dextran sulfate were each prepared as a 2 mg/ml solution in 0.9% NaCl and tested for microbicidal activity using the in vitro HPV transient infection assay originally described by Smith and colleagues (Smith, L. H., C. Foster, M. E. Hitchcock, and R. Isseroff. 1993. In vitro HPV-11 infection of human foreskin. J. Invest. Dermatol. 101:292-295) with some modifications (Ludmerer, S. W., W. L. McClements, X. M. Wang, J. C. Ling, K. U. Jansen, and N. D. Christensen. 2000. HPV11 mutant virus-like parties elicit immune responses that neutralize virus and delineate a novel neutralizing domain. Virology 266:237-245). An ELISA-based read-out of Optical Density (OD) values using alkaline phosphatase cleavage of the substrate p-nitrophenyl phosphate was also used to measure HPV infection as described below.
# The RT-PCR assay to detect HPV-40 infection was designed similarly for the detection of HPV-11 infection as described above.
# A modification of the RT-PCR assay that incorporates an ELISA-based read-out (Boehringer-Mannheim) was also included to assess microbicidal activity. Replicate cell cultures of A431 cells were infected with an aliquot of infectious HPV virions as described above. After 4 days of culture, cells were harvested and RNA extracted. RNA was subjected to RT using downstream anti-sense (reverse) primers for HPV-11 or HPV-40 and β-actin (as a control/housekeeping cellular transcript) to initiate cDNA synthesis. The cDNA was processed through 2 sets of 30 cycles of PCR amplification using nested primers: the second set of cycles used digoxygenin (DIG)-dUTP to label the PCR products with DIG. DIG-labeled PCR products were denatured then renatured together with a biotinylated oligonucleotide specific for the targeted PCR product. Biotinylated products were detected in ELISA with plates coated with streptavidin (to capture the biotinylated target PCR product) then anti-DIG antibody and substrate. Labeled PCR products were added directly to ELISA plates, or titrated at 10-fold dilutions in duplicate for each cell culture for each virus dilution.
# The microbicidal activity was assessed either as the detection of ethidium stained PCR products or as an ELISA-based read-out as described above. […] An initial experiment was conducted to test the specificity of the ELISA-based RT-PCR assay using HPV-11 and HPV-40 infection of A431 cells (Table E).
# trichomonas vaginalis = experiment: Inhibition of Trichomonas growth, live count; format: cell-based; details: for number of live trichomonas: 5 mg/ml
# Procedure: The inhibitory effect of CS on trichomonas vaginalis, protozoa known to cause vaginitis, is shown below. The organisms were grown in modified Diamond's medium. CS was mixed with the organism in modified Diamond's medium at a final concentration of about 5 mg/ml (5.12 mg/ml) and incubated anaerobically at 35° C. Samples were collected at various time points and the number of live trichomonas counted with a hemacytomer. The same procedure was performed in the absence of CS. The volume of the inoculum was varied as indicated in the Tables to study the effect of increasing amounts of the organism on the results.
# [2] = tested on: Porphyromonas asaccharolytica; experiment: Broth method MIC; format: cell-based; details: for CS MIC: Broth (study 2)
# [3] = tested on: Peptostreptococcus magnus; experiment: Broth method MIC; format: cell-based; details: for CS MIC: Broth (study 2)
# [4] = tested on: Bacteroides thetaiotaomicron; experiment: Broth method MIC; format: cell-based
# [5] = tested on: Porphyromonas asaccharolytica; experiment: Agar method MIC; format: cell-based; details: for CS MIC: Agar
# [6] = in vivo
# Source text: Cellulose sulfate offers a further advantage in that irritation by a cytotoxic agent can cause lesions which may facilitate infection and the use of cellulose sulfate is not associated with such risks of infection.
# [7] = tested on: Peptostreptococcus magnus
# Bacteroides fragilis = details: Agar
substance,measurement,setting,value
sodium cellulose sulfate,inhibition of infection,"[1]; 40 μg/ml, mixed first with the virus",partial inhibition
same,inhibition of infection,"[1]; 40 μg/ml, pre-incubated with host cells",Complete inhibition
same,inhibition of infection,"[1]; 200 ug/ml, pre-incubated with the virus before addition to the host cells",almost complete inhibition
same,formation of oncogenic foci by the virus,"[1]; 500 μg/ml, mixed with the virus or with the host cells",completely inhibited
same,Viral-induced foci per culture,"[1]; Table A, 5.0 μg/ml, pre-incubated with host cells prior to addition to virus",72 foci per culture and 60 foci per culture
same,Viral-induced foci per culture,"[1]; Table A, 5.0 μg/ml, pre-incubated with virus prior to addition to host cells",121 foci per culture and 97 foci per culture
same,Viral-induced foci per culture,"[1]; Table A, 50 μg/ml, pre-incubated with host cells prior to addition to virus",10 foci per culture and 12 foci per culture
same,Viral-induced foci per culture,"[1]; Table A, 50 μg/ml, pre-incubated with virus prior to addition to host cells",37 foci per culture and 32 foci per culture
same,Viral-induced foci per culture,"[1]; Table A, 500 μg/ml, pre-incubated with host cells prior to addition to virus",0^A foci per culture and 0 foci per culture
same,Viral-induced foci per culture,"[1]; Table A, 500 μg/ml, pre-incubated with virus prior to addition to host cells",0^A foci per culture and 0 foci per culture
same,Viral-induced foci per culture,"[1]; Table A, 5000 μg/ml, pre-incubated with host cells prior to addition to virus",0^B foci per culture and 0 foci per culture
same,Viral-induced foci per culture,"[1]; Table A, 5000 μg/ml, pre-incubated with virus prior to addition to host cells",0^B foci per culture and 0 foci per culture
same,Viral-induced foci per culture,"[1]; Table B, 1.6 μg/ml, pre-incubated with virus prior to addition to host cells",196 foci per culture and 168 foci per culture
same,Viral-induced foci per culture,"[1]; Table B, 8.0 μg/ml, pre-incubated with host cells prior to addition to virus",5 foci per culture and 3 foci per culture
same,Viral-induced foci per culture,"[1]; Table B, 40 μg/ml, pre-incubated with host cells prior to addition to virus",0 foci per culture
same,Viral-induced foci per culture,"[1]; Table B, 40 μg/ml, pre-incubated with virus prior to addition to host cells",116 foci per culture and 104 foci per culture
same,Viral-induced foci per culture,"[1]; Table B, 200 μg/ml, pre-incubated with host cells prior to addition to virus",0 foci per culture
same,Viral-induced foci per culture,"[1]; Table B, 200 μg/ml, pre-incubated with virus prior to addition to host cells",34 foci per culture and 42 foci per culture
same,"Mean (SD) of O.D. reading for RT-PCR ELISA, HPV-40 probe",HPV-40; 10 μg/ml at viral pretreatment,0.397 (0.050) O.D.
same,"Mean (SD) of O.D. reading for RT-PCR ELISA, HPV-40 probe",HPV-40; 100 μg/ml at viral pretreatment,0.128 (0.008) O.D.
same,"Mean (SD) of O.D. reading for RT-PCR ELISA, HPV-40 probe",HPV-40; 1000 μg/ml at viral pretreatment,0.037 (0.004) O.D.
same,growth of the trichomonas culture,trichomonas vaginalis; 5 mg/ml CS,Complete inhibition of growth
same,number of live trichomonas,"trichomonas vaginalis; 16 hr, 50 μl Trich",0 organisms per ml
same,number of live trichomonas,"trichomonas vaginalis; 16 hr, 100 μl Trich",0 organisms per ml
same,number of live trichomonas,"trichomonas vaginalis; 16 hr, 200 μl Trich",0 organisms per ml
same,number of live trichomonas,"trichomonas vaginalis; 16 hr, 400 μl Trich",0 organisms per ml
same,number of live trichomonas,"trichomonas vaginalis; 24 hr, 50 μl Trich",0 organisms per ml
same,number of live trichomonas,"trichomonas vaginalis; 24 hr, 100 μl Trich",0 organisms per ml
same,number of live trichomonas,"trichomonas vaginalis; 24 hr, 200 μl Trich",0 organisms per ml
same,number of live trichomonas,"trichomonas vaginalis; 24 hr, 400 μl Trich",0 organisms per ml
same,number of live trichomonas,"trichomonas vaginalis; 40 hr, 50 μl Trich",0 organisms per ml
same,number of live trichomonas,"trichomonas vaginalis; 40 hr, 100 μl Trich",0 organisms per ml
same,number of live trichomonas,"trichomonas vaginalis; 40 hr, 200 μl Trich",0 organisms per ml
same,number of live trichomonas,"trichomonas vaginalis; 40 hr, 400 μl Trich",0 organisms per ml
same,number of live trichomonas,"trichomonas vaginalis; 48 hr, 50 μl Trich",0 organisms per ml
same,number of live trichomonas,"trichomonas vaginalis; 48 hr, 100 μl Trich",0 organisms per ml
same,number of live trichomonas,"trichomonas vaginalis; 48 hr, 200 μl Trich",0 organisms per ml
same,number of live trichomonas,"trichomonas vaginalis; 48 hr, 400 μl Trich",0 organisms per ml
same,growth inhibition,[2]; at the concentrations tested,Two strains of Porphyromonas asaccharolytica were inhibited but a third one was not
same,CS MIC,[2]; rma# 11656,5000 µg/mL
same,CS MIC,[2]; rma# 11690,NI (not inhibited by 10 mg/ml (the highest concentration tested))
same,growth inhibition,[3]; all strains,inhibited
same,CS MIC,[3]; rma# 11598,5000 µg/mL
same,CS MIC,[3]; rma# 11658,5000 µg/mL
same,CS MIC,"[4]; ATCC (first listed), Broth (study 1)",NI (not inhibited by 10 mg/ml (the highest concentration tested))
same,CS MIC,"[4]; ATCC (first listed), Broth (study 2)",NI (not inhibited by 10 mg/ml (the highest concentration tested))
same,CS MIC,"[4]; ATCC (second listed), Broth (study 2)",10000 µg/mL
same,growth inhibition,[4]; at the concentrations tested,One strain of Bacteroides thetaiotaomicron was inhibited but three others were not
same,CS MIC,"[4]; rma# 11604, Broth (study 2)",NI (not inhibited by 10 mg/ml (the highest concentration tested))
same,CS MIC,"[4]; rma# 11651, Broth (study 2)",NI (not inhibited by 10 mg/ml (the highest concentration tested))
same,lowest concentration of compound that inhibited growth,"[5]; Example 8, agar, 48 hours anaerobic, highest tested 625 μg/ml",80 µg/mL
same,CS MIC,[5]; rma# 11612,80 µg/mL
same,CS MIC,[5]; rma# 11656,>625 µg/mL
same,tolerability versus K-Y Jelly,[6],as well as or even better than K-Y Jelly
same,tolerability versus nonoxynol-9,[6],better tolerated than nonoxynol-9
same,CS MIC,Fusobacterium nucleatum,>0.625** mg/ml
same,CS MIC,[7],>0.625** mg/ml
same,CS MIC,Bacteroides fragilis; ATCC (first listed),>625 µg/mL
same,CS MIC,Bacteroides fragilis; rma# 11647,>625 µg/mL
same,CS MIC,Bacteroides fragilis; rma# 11652,>625 µg/mL
